Test results from patent US11555015B2, “Compounds useful in the treatment of autoimmune and inflammatory disorders” (Arena Pharmaceuticals, Inc., priority 2018, dated 2023).

Biological target: S1P1 (Homo sapiens, UniProt P21453)
Assay: Beta arrestin assay (in vitro S1P1 activity)
Assay type: cell-based
Settings: in vitro beta-arrestin agonist assay
Procedure: The in vitro S1P1 activity was determined in the beta arrestin assay.

S1P1, sequence (P21453 whole entry, species assumed): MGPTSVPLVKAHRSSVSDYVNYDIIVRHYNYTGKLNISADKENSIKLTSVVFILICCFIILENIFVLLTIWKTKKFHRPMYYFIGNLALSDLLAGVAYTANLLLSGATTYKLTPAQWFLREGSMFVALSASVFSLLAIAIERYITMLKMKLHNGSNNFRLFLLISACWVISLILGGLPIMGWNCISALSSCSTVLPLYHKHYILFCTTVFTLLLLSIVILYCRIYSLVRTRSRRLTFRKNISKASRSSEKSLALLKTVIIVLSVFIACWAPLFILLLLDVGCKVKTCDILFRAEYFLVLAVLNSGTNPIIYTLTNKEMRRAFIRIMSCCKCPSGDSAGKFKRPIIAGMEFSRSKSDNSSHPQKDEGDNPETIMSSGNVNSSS

| SMILES | EC50 [nM] |
| --- | --- |
| O=C(O)CC1CCc2c1[nH]c1ccc(OCc3ccc(C4CCC(O)C4)c(C(F)(F)F)c3)cc21 (single isomer, unassigned) [Compound 2-2, 2-(7-((4-(3-Hydroxycyclopentyl)-3-(trifluoromethyl)benzyl)oxy)-1,2,3,4-tetrahydrocyclopenta[b]indol-3-yl)acetic Acid] | 85.6 |
| O=C(C[C@H]1CCc2c1[nH]c1ccc(OCc3ccc(C4CCCC4)c(C(F)(F)F)c3)cc21)OC1O[C@H](C(=O)O)[C@@H](O)[C@H](O)[C@H]1O (stereo partly drawn) [Compound 1, (2S,3S,4S,5R)-6-(2-((R)-7-((4-cyclopentyl-3-(trifluoromethyl)benzyl)oxy)-1,2,3,4-tetrahydrocyclopenta[b]indol-3-yl)acetoxy)-3,4,5-trihydroxytetrahydro-2H-pyran-2-carboxylic acid] | 3.9 |
| O=C(O)CC1CCc2c1[nH]c1ccc(OCc3ccc(C4CCC(O)C4)c(C(F)(F)F)c3)cc21 (single isomer, unassigned) [Compound 2-1, 2-(7-((4-(3-Hydroxycyclopentyl)-3-(trifluoromethyl)benzyl)oxy)-1,2,3,4-tetrahydrocyclopenta[b]indol-3-yl)acetic Acid] | 52.1 |

Next, values leading:

| EC50 [nM] | SMILES |
| --- | --- |
| 3.66 | O=C(O)CC1CCc2c1[nH]c1ccc(OCc3ccc(C4CCCC4O)c(C(F)(F)F)c3)cc21 (mixture of isomers) [Compound 4, 2-(7-((4-(2-hydroxycyclopentyl)-3-(trifluoromethyl)benzyl)oxy)-1,2,3,4-tetrahydrocyclopenta[b]indol-3-yl)acetic acid] |
| 16.7 | O=C(O)CC1CCc2c1[nH]c1ccc(OCc3ccc(C4CCCC4O)c(C(F)(F)F)c3)cc21 (centres unmarked) [Compound 4-1, 2-(7-((4-(2-Hydroxycyclopentyl)-3-(trifluoromethyl)benzyl)oxy)-1,2,3,4-tetrahydrocyclopenta[b]indol-3-yl)acetic Acid] |
